Measured values: patent publication US10905744B2, “Pharmaceutical formulations for the oral delivery of peptide drugs” (Cyprumed GmbH, priority 2015, dated 2021)

How the values were obtained:
[1] = GLP-1 peptide formulations with SNAC and trace elements: dissolution in aqua purificata, visual (Example 4); type: physicochemical; conditions: liraglutide 1.8 mg/ml, SNAC 20 mg, trace element 2 mg, disodium phosphate dihydrate, 2 ml aqua purificata
Procedure: Compositions comprising a GLP-1 peptide, a complexing agent (disodium phosphate dihydrate), the absorption enhancer N-(8-[2-hydroxybenzoyl]amino)caprylic acid (SNAC) and various trace elements or metal salts were prepared and dissolved in 2 ml of aqua purificata and examined visually.

[2] = biological target: T1, trypsin (Bos taurus, UniProt P00760); experiment: Trypsin inhibition, BAPNA substrate, absorbance at 405 nm (Examples 10-12, 20-22, 25, 26, 28, 29, 33); type: biochemical
T1 construct: gene PRSS1
T1 sequence (P00760 24-246): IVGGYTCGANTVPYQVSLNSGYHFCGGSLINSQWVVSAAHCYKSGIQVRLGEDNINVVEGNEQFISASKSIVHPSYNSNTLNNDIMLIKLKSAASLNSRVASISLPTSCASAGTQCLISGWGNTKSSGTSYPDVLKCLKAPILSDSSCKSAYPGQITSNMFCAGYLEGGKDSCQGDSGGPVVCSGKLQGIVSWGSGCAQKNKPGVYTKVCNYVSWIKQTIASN
Procedure: 100 mg/ml copper gluconate in 50 mM TRIS pH 7; pH was adjusted to pH 7; stock solution was diluted to the following concentrations: 50 mg/ml, 25 mg/ml, 12.5 mg/ml, 5 mg/ml, 6.25 mg/ml, 3.125 mg/ml, 2.5 mg/ml, 1.25 mg/ml, 0.625 mg/ml, 0.313 mg/ml, 0.156 mg/ml and 0.078 mg/ml
0.5 mg/mL Benzoyl-Arginine p-nitroanilide (BAPNA)
100 μl 50 mM TRIS pH 7+50 μL Trypsin Stock+50 μL BAPNA Stock
100 μl Copper solution (according to the above described dilutions)+50 μL Trypsin Stock+50 μL BAPNA Stock
Absorption was measured after 15 minutes at 405 nm.
Values were corrected (subtraction of blank).
100 mg/ml Zinc bisglycinate in 50 mM TRIS pH 7; pH was adjusted to pH 7; stock solution was diluted to the following concentrations: 50 mg/ml and 25 mg/ml
100 μl Zinc solution (according to the above described dilutions)+50 μL Trypsin Stock+50 μL BAPNA Stock
10 mg/ml iron gluconate in 50 mM TRIS pH 7; pH was adjusted to pH 7; stock solution was diluted to the following concentrations: 5 mg/ml, 2.5 mg/ml, 1.25 mg/ml and 0.625 mg/ml
100 μl Iron solution (according to the above described dilutions)+50 μL Trypsin Stock+50 μL BAPNA Stock
Absorption was measured directly at 405 nm.
Benzoyl-Arginine p-nitroanilide (BAPNA): 0.5 mg/ml in 50 mM TRIS pH 7 (centrifuged and supernatant used as stock solution)
Trypsin: […] in 50 mM TRIS pH 7
1 mg/mL iron gluconate in 10 mM TRIS pH 7 (iron content=12%), 0.12 mg/ml iron
12 mg/mL copper lysinate in 10 mM TRIS pH 7 (copper content=3%), 0.12 mg/ml copper
100 μl of the respective salt solution+50 μL Trypsin Stock+50 μL BAPNA Stock
Experiments were carried out at pH 7, 50 mM TRIS.
0.025 mg/ml Trypsin, 0.125 mg/mL Benzoyl-Arginine p-nitroanilide (BAPNA.) Lauryl glutamate:
0.25 mg/ml; copper content (as copper(II)gluconate): 0.035 mg/ml.
Adsorption measurement at 405 nm
0.025 mg/ml Trypsin, 0.125 mg/mL Benzoyl-Arginine p-nitroanilide (BAPNA). lauryl-glutamate:
Absorption measurement at 405 nm
0.025 mg/ml Trypsin, 0.125 mg/mL Benzoyl-Arginine p-nitroanilide (BAPNA). Capryl-glucoside:
Copper sulfate stock solution: 1 mg/ml of copper sulfate was dissolved in 50 mM TRIS pH 7. Copper tartrate stock solution: 1 mg/ml of copper tartrate was dispersed in 50 mM TRIS pH 7 and moderately stirred for 5 minutes. The suspension was then centrifuged at 3′000 rpm for 10 minutes, to separate the insoluble salt. The supernatant was used as stock solution for the experiments.
Zinc orotate stock solution: 1 mg/ml of zinc orotate was dispersed in 50 mM TRIS pH 7 and moderately stirred for 5 minutes. The suspension was then centrifuged at 3′000 rpm for 10 minutes, to separate the insoluble salt. The supernatant was used as stock solution for the experiments.
100 μL of the respective salt solution stock+50 μL Trypsin Stock+50 μL BAPNA Stock
Control: 100 μL of 50 mM TRIS pH 7+50 μL Trypsin Stock+50 μL BAPNA Stock
Final concentrations of protease and substrate were 0.025 mg/ml Trypsin, 0.125 mg/mL
50 μl manganese sulfate+50 μl copper gluconate+50 μL Trypsin Stock+50 μL BAPNA Stock
Absorption measurement at 405 nm; final pH in all solutions was monitored to be pH 7.
3 mg/ml SiO2—suspended in 50 mM TRIS pH 7 and centrifuged; supernatant was used for experiments.
50 μl SiO2+50 μl 50 mM TRIS pH 7+50 μL Trypsin Stock+50 μL BAPNA Stock
50 μl copper gluconate+50 μl SiO2+50 μL Trypsin Stock+50 μL BAPNA Stock
50 μl iron gluconate+50 μl SiO2+50 μL Trypsin Stock+50 μL BAPNA Stock
120 μl 50 mM TRIS pH 7+50 μL Trypsin Stock+50 μL BAPNA Stock
80 μl copper gluconate+40 μl 50 mM TRIS pH 7+50 μL Trypsin Stock+50 μL BAPNA Stock
40 μl copper gluconate+80 μl 50 mM TRIS pH 7+50 μL Trypsin Stock+50 μL BAPNA Stock
80 μl iron gluconate+40 μl 50 mM TRIS pH 7+50 μL Trypsin Stock+50 μL BAPNA Stock
40 μl iron gluconate+80 μl 50 mM TRIS pH 7+50 μL Trypsin Stock+50 μL BAPNA Stock
80 μl iron gluconate+40 μl copper gluconate+50 μL Trypsin Stock+50 μL BAPNA Stock

[3] = Compatibility of absorption enhancers with trace elements: dissolution in aqueous medium, visual examination (Example 1); type: physicochemical
Procedure: Solid dry powder mixtures of desmopressin acetate, zinc sulfate or iron(III) chloride, and different absorption enhancers were prepared and dissolved in 2 ml aqua purificata.

[4] = biological target: chymotrypsin (Bos taurus, UniProt P00766); experiment: Chymotrypsin inhibition, BTPNA substrate, absorbance at 405 nm (Examples 9, 13-19, 23, 24, 27, 30, 31)
Procedure: CuSO4.5H2O dilutions in 10 mM TRIS buffer pH 7 to 10 mM, 5 mM, 2.5 mM 1.25 mM Benzoyl-Tyrosine p-nitroanilide (BTPNA): 0.5 mg/mL BTPNA in Acetone
Study: • (1) 100 μl buffer (10 mM TRIS, pH=7)+50 μl Chymotrypsin Stock+50 μl BTPNA • (2) 80 μl buffer (10 mM TRIS, pH=7)+20 μl CuSO4 stock (10 mM)+50 μl Chymotrypsin Stock+50 μl BTPNA • (3) 80 μl buffer (10 mM TRIS, pH=7)+20 μl CuSO4 dilut. (5 mM)+50 μl Chymotrypsin Stock+50 μl BTPNA • (4) 80 μl buffer (10 mM TRIS, pH=7)+20 μl CuSO4 stock (2.5 mM)+50 μl Chymotrypsin Stock+50 μl BTPNA • (5) 80 μl buffer (10 mM TRIS, pH=7)+20 μl CuSO4 dilut. (1.25 mM)+50 μl Chymotrypsin Stock+50 μl BTPNA
Final copper concentrations: 1 mM, 0.5 mM, 0.25 mM, 0.125 mM.
10 mM CuSO4 and Copper gluconate stock solution were diluted 1:1 with 10 mM TRIS buffer pH 7
Study: • (1) 100 μl buffer (10 mM TRIS, pH=7)+50 μl Chymotrypsin Stock+50 μl BTPNA • (2) 80 μl buffer (10 mM TRIS, pH=7)+20 μl CuSO4 dil. (5 mM)+50 μl Chymotrypsin Stock+50 μl BTPNA • (3) 80 μl buffer (10 mM TRIS, pH=7)+20 μl Copper gluconate dilut. (5 mM)+50 μl Chymotrypsin Stock+50 μl BTPNA • (4) 100 μl Cu-bisglycinate stock (0.5 mM)+50 μl Chymotrypsin Stock+50 μl BTPNA
10 mM CuSO4 stock solution was diluted 1:1 with 10 mM TRIS Puffer pH 7
Study: • (1) 30 μl buffer (10 mM TRIS, pH=7)+20 μl CuSO4 dil. (5 mM)+100 μl Chymotrypsin Stock: 30 min. incubation, then addition of 50 μl BTPNA • (2) 30 μl buffer (10 mM TRIS, pH=7)+100 μl Chymotrypsin Stock: 30 min. incubation, then addition of 20 μl CuSO4 dil. (5 mM)+50 μl BTPNA
Final copper concentration: 0.5 mM
Iron(II)-bisglycinate solution containing 1.86 mM of iron in 10 mM TRIS buffer pH 7 was prepared
Cu(II)-gluconate solution containing 2.0 mM of copper in 10 mM TRIS buffer pH 7 was prepared
Study: • (1) 100 μl buffer (10 mM TRIS, pH=7)+50 μl Chymotrypsin Stock+50 μl BTPNA • (2) 100 μl iron(II)-bisglycinate+50 μl Chymotrypsin Stock+50 μl BTPNA • (3) 100 μl copper(II)-gluconate+50 μl Chymotrypsin Stock+50 μl BTPNA
Values were corrected (subtraction of blank). Inhibition was calculated by setting the absorption value of (1) at each time-point as 100%.
Iron(II)-bisglycinate solution containing 0.46 mM of iron in 10 mM TRIS buffer pH 7 was prepared
Cu(II)- bisglycinate solution containing 0.46 mM of copper in 10 mM TRIS buffer pH 7 was prepared
Study: • (1) 100 μl buffer (10 mM TRIS, pH=7)+50 μl Chymotrypsin Stock+50 μl BTPNA • (2) 100 μl iron(II)-bisglycinate+50 μl Chymotrypsin Stock+50 μl BTPNA • (3) 100 μl copper(II)-bisglycinate+50 μl Chymotrypsin Stock+50 μl BTPNA
Values were corrected (subtraction of blank). Inhibition (%) was calculated by setting the absorption value of (1) at each time-point as 100% degradation.
Values were corrected (subtraction of blank). pH was confirmed to be pH 7 after the experiment.
0.025 mg/ml Chymotrypsin, 0.05 mg/mL Benzoyl-Tyrosine p-nitroanilide (BTPNA). Lauryl glutamate: 0.25 mg/ml; copper (as copper gluconate): 0.035 mg/ml.
0.025 mg/ml Chymotrypsin, 0.05 mg/mL Benzoyl-Tyrosine p-nitroanilide (BTPNA). Lauryl glutamate: 0.25 mg/ml; iron (as iron gluconate): 0.03 mg/ml.
100 μl 50 mM TRIS pH 7+50 μL Chymotrypsin Stock+50 μL BTPNA Stock
50 μl Beta-cyclodextrin+50 μl 50 mM TRIS pH 7+50 μL Chymotrypsin Stock+50 μL BTPNA Stock
50 μl copper gluconate+50 μl 50 mM TRIS pH 7+50 μL Chymotrypsin Stock+50 μL BTPNA Stock
50 μl copper gluconate+50 μl Beta-cyclodextrin+50 μL Chymotrypsin Stock+50 μL BTPNA Stock
50 μl copper gluconate+50 μl trisodium phosphate+50 μL Chymotrypsin Stock+50 μL BTPNA Stock
50 μl iron gluconate+50 μl trisodium phosphate+50 μL Chymotrypsin Stock+50 μL BTPNA Stock
Experiments were carried out at pH 7 in 50 mM TRIS buffer.

[5] = Example 26, 1 mg/ml stocks (supernatant for copper tartrate and zinc orotate), pH 7, 50 mM TRIS, FIG. 17
[6] = desmopressin acetate + FeCl3 5 mg/ml + absorption enhancer 10 mg/ml in 2 ml aqua purificata
[7] = desmopressin acetate + ZnSO4 5 mg/ml + absorption enhancer 10 mg/ml in 2 ml aqua purificata
[8] = Example 22, lauryl-glutamate […], iron 0.03 mg/ml, pH 7, 50 mM TRIS, FIG. 13
[9] = Example 16, 0 minutes, metal ion 0.015 mg/ml ([…]), 10 mM TRIS pH 7
[10] = Example 20, solutions 1 mg/mL iron gluconate, 1 mg/mL copper gluconate, 12 mg/mL copper lysinate, FIG. 11

Molecule | Dissolution in aqua purificata [1] | Dissolution in aqueous medium (2 ml) [3, 6] | Dissolution in aqueous medium (2 ml) [3, 7] | further results
Zinc orotate | Clear solution | – | – | trypsin inhibition [2, 5]: show trypsin inhibitory properties in vitro
Zinc carnosine | Clear solution | – | – | –
CCCCCCCC(=O)[O-].[Na+] [Sodium caprylate] | – | Precipitation | Precipitation | –
[Cl][Fe]([Cl])[Cl] [Fe(III)chlorid, iron(III) chloride] | precipitation | – | – | –
lauryl-glutamate | – | – | – | trypsin inhibition ([2]; Example 21, lauryl glutamate […], copper […], pH 7, 50 mM TRIS, FIG. 12): can be inhibited; trypsin inhibition [2, 8]: can be inhibited
O=C([O-])C(O)C(O)C(=O)[O-].[Cu+2] (stereo not shown) [copper tartrate] | – | – | – | trypsin inhibition [2, 5]: show trypsin inhibitory properties in vitro
O=C(O)CN(CCN(CC(=O)O)CC(=O)O)CC(=O)O [EDTA] | – | – | – | chymotrypsin inhibition ([4]; Example 18, stocks: copper gluconate 10 mM, EDTA 5 mM, sodium caprylate 4 mg/ml, pH 7, FIG. 9): can inhibit chymotrypsin; effect on chymotrypsin inhibition ([4]; Example 19, EDTA added to a solution of copper gluconate, Tween 20 and sodium caprylate, FIG. 10): positive effect on chymotrypsin inhibition; chymotrypsin inhibition ([4]; Example 31, stocks […] copper(II)gluconate, 1.25 mM EDTA, pH 7, 10 mM TRIS, FIG. 22): can be inhibited
CCCCCCCCCC(=O)[O-].[Na+] [Sodium caprate] | – | Precipitation | Precipitation | –
CCCCCCCCO[C@@H]1O[C@H](CO)[C@@H](O)[C@H](O)[C@H]1O [n-Octyl-b-D-glucopyranoside] | – | Clear solution | Clear solution | –
Zinc picolinate | Clear solution | – | – | –
NCC(=O)[O-].NCC(=O)[O-].[Cu+2] [Copper-bisglycinate] | – | – | – | Inhibition % [4, 9]: 0%
NCC(=O)[O-].NCC(=O)[O-].[Zn+2] [zinc bisglycinate] | – | – | – | inhibition of trypsin ([2]; pH 7): inhibits the proteolytic enzyme trypsin in a dose dependent manner
Iron gluconate | Clear orange solution | – | – | inhibition of trypsin ([2]; Example 12, iron gluconate solutions 10 to 0.625 mg/ml, 50 mM TRIS pH 7, FIG. 5): inhibits the proteolytic enzyme trypsin in a dose dependent manner; trypsin inhibition [2, 10]: can be inhibited; trypsin inhibition [2, 8]: can be inhibited; trypsin inhibition ([2]; Example 25, capryl-glucoside […], iron 0.03 mg/ml, pH 7, 50 mM TRIS, FIG. 16): can be inhibited; trypsin inhibition ([2]; Example 33, stocks 1 mg/ml copper(II)gluconate, 1 mg/ml iron(II)gluconate, 40 or 80 μl, pH 7, FIG. 23): can be inhibited; chymotrypsin inhibition ([4]; Example 24, lauryl glutamate […], iron 0.03 mg/ml, pH 7, 50 mM TRIS, FIG. 15): can be inhibited
CCCCCCCCCCCCO[C@@H]1O[C@H](CO)[C@@H](O[C@H]2O[C@H](CO)[C@@H](O)[C@H](O)[C@H]2O)[C@H](O)[C@H]1O [n-Dodecyl-b-D-maltoside] | – | Clear solution | Clear solution | –
CCCCCCCCCCCCOS(=O)(=O)[O-].[Na+] [Sodium dodecyl sulfate] | – | Clear solution | Clear solution | –
CC(=O)[O-].CC(=O)[O-].[Zn+2] [Zinc acetate] | precipitation | – | – | –
O=C(O)CC(O)(CC(=O)O)C(=O)O [Citric acid] | – | – | Clear solution | –
NCC(=O)[O-].NCC(=O)[O-].[Fe+2] [Iron bisglycinate] | Clear brownish solution | – | – | Inhibition % ([4]; Example 15, 0 minutes, metal ion Fe 0.06 mg/ml (0.92 mM), Cu 0.065 mg/ml (1.0 mM), 10 mM TRIS pH 7): 0%; Inhibition % ([4]; Example 15, 15 minutes, metal ion Fe 0.92 mM, Cu 1.0 mM): 69%; Inhibition % ([4]; Example 15, 30 minutes, metal ion Fe 0.92 mM, Cu 1.0 mM): 62%; Inhibition % ([4]; Example 15, 45 minutes, metal ion Fe 0.92 mM, Cu 1.0 mM): 56%; Inhibition % ([4]; Example 15, 60 minutes, metal ion Fe 0.92 mM, Cu 1.0 mM): 52%; Inhibition % [4, 9]: 0%
C[C@H](CCC(=O)O)[C@H]1CC[C@H]2[C@@H]3[C@H](O)C[C@@H]4C[C@H](O)CC[C@]4(C)[C@H]3C[C@H](O)[C@]12C [Cholic acid] | – | Precipitation | Precipitation | –
CCCCCCCCCCCC(=O)OC(CC(=O)O)C[N+](C)(C)C.[Cl-] (stereo not shown) [Lauroyl carnitine HCl] | – | Clear solution | Clear solution | –
NCCCC[C@H](N)C(=O)O.NCCCC[C@H](N)C(=O)O.[Cu] [copper(II)lysinate] | – | – | – | trypsin inhibition [2, 10]: can be inhibited
O=S(=O)([O-])[O-].[Zn+2] [ZnSO4, zinc sulfate] | precipitation | – | – | –
[Cl-].[Cl-].[Zn+2] [ZnCl2, zinc chloride] | precipitation | – | – | –
Copper orotate | Clear solution | – | – | –
C[C@H](CCC(=O)[O-])[C@H]1CC[C@H]2[C@@H]3[C@H](O)C[C@@H]4C[C@H](O)CC[C@]4(C)[C@H]3C[C@H](O)[C@]12C.[Na+] [Sodium cholate] | – | Precipitation | Precipitation | –
